Assay results published in patent US20110245284A1, “Alkoxy- and Alkylthio-Substituted Anilinopyrimidines” (Bayer CropScience AG, priority 2008, published 2011).

Legend:
[1] = logP by HPLC on reversed-phase columns (C 18), method [a], acidic range pH 2.3; format: physicochemical
Description: (§1) The logP values were determined in accordance with EEC Directive 79/831 Annex V.A8 by HPLC (High Performance Liquid Chromatography) on reversed-phase columns (C 18), using the methods below:
[a] The determination is carried out in the acidic range at pH 2.3 using the mobile phases 0.1% aqueous phosphoric acid and acetonitrile, linear gradient from 10% acetonitrile to 95% acetonitrile.

[2] = system: Leptosphaeria nodorum; assay: Leptosphaeria nodorum test (wheat) / protective; format: in vivo; details: Parastagonospora nodorum, active compound concentration 500 ppm, evaluation 7-9 days after inoculation, read-out: efficacy
Description: Thereafter, the plants are placed in a greenhouse at 90% relative atmospheric humidity and a temperature of 22° C.

[3] = logP by LC-MS on reversed-phase columns (C 18), method [c], neutral range pH 7.8; format: physicochemical; details: pH 7.8
Description: as §1
[c] The LC-MS determination in the neutral range is carried out at pH 7.8 using the mobile phases 0.001 molar aqueous ammonium bicarbonate solution and acetonitrile, linear gradient from 10% acetonitrile to 95% acetonitrile.

[4] = system: Sphaerotheca fuliginea; assay: Sphaerotheca test (cucumber) / protective; format: in vivo; details: Podosphaera fuliginea, 168 h, active compound concentration 500 ppm, evaluation 7 days after inoculation, read-out: efficacy
Description: The plants are subsequently placed in a greenhouse at 70% relative atmospheric humidity and a temperature of 23° C.

[5] = logP by LC-MS on reversed-phase columns (C 18), method [b], acidic range pH 2.7; format: physicochemical; details: pH 2.7, log p
Description: as §1
[b] The LC-MS determination in the acidic range is carried out at pH 2.7 using the mobile phases 0.1% aqueous formic acid and acetonitrile (contains 0.1% formic acid), linear gradient from 10% acetonitrile to 95% acetonitrile.

[6] = system: Pyricularia oryzae; assay: whole plant or invertebrate; format: in vivo; details: 120 h, read-out: efficacy

For `CCSC(CC)c1cccc([N+](=O)[O-])c1` (stereo not shown) [VIc-I-3, 1-[1-(Ethylsulphanyl)propyl]-3-nitrobenzene], the chromatographic logP ([1]; pH 2.3, logP (pH2.3)) was 3.96.
For `COCc1cccc(Nc2ncc(Cl)c(NC(C)(C)C(C)=O)n2)c1` [Example 9], the log p ([1]; pH 2.3) was 1.99[a].
In the case of `COCc1cccc(Nc2ncc(Cl)c(N(C)C(C)C)n2)c1` [Example 29], the chromatographic logP ([1]; pH 2.3, log p) is reported as 2.56, the pest or weed control at 500 ppm [2] is reported as at least 70% and the chromatographic logP [3] is reported as 4.
For `CCSC(C)c1cccc(N)c1` (stereo not shown) [IVc-I-4, 3-[1-(Ethylsulphanyl)ethyl]aniline], the chromatographic logP ([1]; pH 2.3, logP (pH2.3)) was 1.46.
With `CSC(C)c1cccc(N)c1` (stereo not shown) [IVc-I-2] the “logP (pH2.3)” value ([1]; pH 2.3) was 1.03.
With `Clc1ncc(I)c(NC2CCC2)n1` [Example V-3, 2-Chloro-N-cyclobutyl-5-iodine-pyrimidin-4-amine] the “logP (pH2.3)” value ([1]; pH 2.3, HPLC reversed-phase C 18) was 3.08.
With `CCC(SC)c1cccc([N+](=O)[O-])c1` (stereo not shown) [VIc-I-1, 1-[1-(Methylsulphanyl)propyl]-3-nitrobenzene] the chromatographic logP ([1]; pH 2.3, logP (pH2.3)) was 3.51.
Molecule `CSC(C)c1cccc(Nc2ncc(C(F)(F)F)c(Cl)n2)c1` (stereo not shown) [Xa-8, 4-Chloro-N-{3-[1-(methylsulphanyl)ethyl]phenyl}-5-(trifluoromethyl)pyrimidin-2-amine] has a chromatographic logP ([1]; pH 2.3, logP (pH2.3)) of 4.5.
Work on `CC(O)c1cccc(Nc2ncc(C(F)(F)F)c(Cl)n2)c1` (stereo not shown) [Xa-15, 1-(3-{[4-Chloro-5-(trifluoromethyl)pyrimidin-2-yl]amino}phenyl)ethanol] yielded a chromatographic logP ([1]; pH 2.3, logP (pH2.3)) of 2.81.
With `CSC(C)c1cccc([N+](=O)[O-])c1` (stereo not shown) [VIc-I-2, 1-[1-(Methylsulphanyl)ethyl]-3-nitrobenzene] the chromatographic logP ([1]; pH 2.3, logP (pH2.3)) was 3.06.
`COCCOC(c1cccc(N)c1)C(F)(F)F` (stereo not shown) [IVc-I-6, 3-[2,2,2-Trifluoro-1-(2-methoxyethoxy)ethyl]aniline] gave a chromatographic logP ([1]; pH 2.3, logP (pH2.3)) of 1.64.
In the case of `Clc1ncc(Cl)c(NC2CC2)n1` [Example V-4, 2,5-Dichloro-N-cyclopropylpyrimidin-4-amine], the chromatographic logP ([1]; pH 2.3, logP (pH2.3)) is reported as 1.77.
`FC(F)(F)c1cnc(Cl)nc1NC1CC1` [Example V-21, 2-Chloro-N-cyclopropyl-5-(trifluoromethyl)pyrimidin-4-amine] showed a chromatographic logP ([1]; pH 2.3, logP (pH2.3)) of 2.38.
Molecule `CC(C)Sc1cccc(Nc2ncc(Cl)c(Cl)n2)c1` [Xa-6, 4,5-Dichloro-N-[3-(propan-2-ylsulphanyl)phenyl]pyrimidin-2-amine] has a chromatographic logP ([1]; pH 2.3, logP (pH2.3)) of 4.04.
`CCN(C)c1nc(Nc2cccc(COC)c2)ncc1Cl` [Example 85] gave a pest or weed control at 500 ppm [4] of at least 70%, a pest or weed control at 500 ppm [2] of at least 70% and a chromatographic logP [5] of 2.14. It also gave a chromatographic logP [3] of 3.7.
Work on `CCS(=O)(=O)C(C)c1cccc(Nc2ncc(Cl)c(NC(C)C)n2)c1` (stereo not shown) [Example 150] yielded a pest or weed control at 500 ppm [4] of at least 70%, a pest or weed control at 500 ppm [2] of at least 70% and a chromatographic logP [5] of 1.65. It also gave a chromatographic logP [3] of 2.89.
With `CC(C)CCSc1cccc(Nc2ncc(C(F)(F)F)c(Cl)n2)c1` [Xa-3, 4-Chloro-N-{3-[(3-methylbutyl)sulphanyl]phenyl}-5-(trifluoromethyl)pyrimidin-2-amine] the chromatographic logP ([1]; pH 2.3, logP (pH2.3)) was 5.79.
With `CC(C)CCSc1cccc(Nc2ncc(Cl)c(Cl)n2)c1` [Xa-4, 4,5 -Dichloro-N-{3-[(3-methylbutyl)sulphanyl]phenyl}pyrimidin-2-amine] the chromatographic logP ([1]; pH 2.3, logP (pH2.3)) was 4.98.
Work on `CCSCc1cccc(Nc2ncc(Cl)c(NC3CCC3)n2)c1` [Example 219] yielded a pest or weed control at 500 ppm [4] of at least 70%, a pest or weed control at 500 ppm [2] of at least 70% and a chromatographic logP [5] of 3. It also gave a chromatographic logP [3] of 4.44.
`CCCS(=O)(=O)c1cccc(Nc2ncc(C(F)(F)F)c(Cl)n2)c1` [Xc-1, 4-chloro-N-[3-(propylsulphonyl)phenyl]-5-(trifluoromethyl)pyrimidin-2-amine] showed a chromatographic logP ([1]; pH 2.3, logP (pH2.3)) of 3.29.
Molecule `COCc1cccc(Nc2ncc(Cl)c(NC3CC(C)C3)n2)c1` (stereo not shown) [Example 198] has a chromatographic logP ([1]; pH 2.3, log p) of 4.04, a pest or weed control at 500 ppm [4] of at least 70% and a pest or weed control at 500 ppm [2] of at least 70%.
Molecule `CCC(C)[S+]([O-])C(C)c1cccc(Nc2ncc(C(F)(F)F)c(NC3CC3)n2)c1` (stereo not shown) [Example 160] has a pest or weed control at 500 ppm [4] of at least 70%, a pest or weed control at 500 ppm [2] of at least 70% and a chromatographic logP [5] of 2.85. It also gave a chromatographic logP [3] of 3.11.
Molecule `FC(F)(F)c1cnc(Cl)nc1NCC1CC1` [Example V-22, 2-Chloro-N-(cyclopropylmethyl)-5-(trifluoromethyl)pyrimidin-4-amine] has a chromatographic logP ([1]; pH 2.3, logP (pH2.3)) of 2.98.
`CCCSc1ccc(Nc2ncc(Cl)c(NC3CC3)n2)cc1` [Example 96] gave a pest or weed control at 500 ppm [2] of at least 70%, a pest or weed control at 250 ppm [6] of at least 80% and a chromatographic logP [5] of 3.09.
Work on `CCSC(CC)c1cccc(Nc2ncc(Cl)c(NC3CC3)n2)c1` (stereo not shown) [Example 115] yielded a pest or weed control at 500 ppm [4] of at least 70%, a pest or weed control at 500 ppm [2] of at least 70% and a chromatographic logP [5] of 3.33. It also gave a chromatographic logP [3] of 4.69.
